This is an account of results in publication PMC8760635 (Analytical chemistry, 2021).

A word on the Kd: it is a measure of binding affinity in units of concentration.

The assay has as its target recombinant His6-tagged human FABP5 (Homo sapiens, UniProt Q01469). As to the kind of experiment: Isothermal titration calorimetry. Type of assay: binding. Background: Isothermal titration calorimetry measures the heat released or taken up as one component is titrated into another.

SMILES strings stand for the structures. Where two headings read alike, the source gives them in different places.

Chain of recombinant His6-tagged human FABP5 (Q01469 whole entry): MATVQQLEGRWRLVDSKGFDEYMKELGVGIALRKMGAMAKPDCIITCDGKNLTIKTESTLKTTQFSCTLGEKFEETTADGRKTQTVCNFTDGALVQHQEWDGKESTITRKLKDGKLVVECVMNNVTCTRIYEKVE

On to `O=C(O)C(F)(F)C(F)(F)C(F)(F)C(F)(F)C(F)(F)C(F)(F)C(F)(F)F` [PFOA, perfluorooctanoic acid], for which the Kd came to 77 ± 17 µM.

For the compound `O=P(O)(O)C(F)(F)C(F)(F)C(F)(F)C(F)(F)C(F)(F)C(F)(F)C(F)(F)C(F)(F)F` [PFOPA, perfluorooctanephosphonic acid], the Kd (read-out: dissociation constant (Kd), ITC, 25 °C, 100 mM NaCl, 30 mM Tris (pH 7.5), 5% glycerol, one-binding-site model, ± error of the fit) was found to be 167 ± 34 µM.
